{"source": "patent US20240016831A1", "about": "(priority 2020, published 2024)", "key": {"[1]": {"system": "SARS-CoV-2 clinical isolate", "assay_type": "cell-based"}, "[2]": {"system": "Vero E6 cells"}, "[3]": {"assay_type": "physicochemical"}}}
{"smiles": "CCN(CC)CCCC(C)Nc1ccnc2cc(Cl)ccc12", "note": "(stereo not drawn) [chloroquine, Chloroquine Phosphate, reference compound]", "values": [{"measurement": "SARS-CoV-2 virus titre", "setting": "[1]", "result": "limit of detection (LOD)"}]}
{"smiles": "O=C(O)CC(O)(CC(=O)O)C(=O)O", "note": "[citric acid pH 5.8, citric acid]", "values": [{"measurement": "cytotoxicity on the LDH assay", "setting": "[2]", "result": "low cytotoxicity"}, {"measurement": "in vitro antiviral action against SARS-CoV-2", "setting": "[1]", "result": "high in vitro antiviral action"}]}
{"smiles": "OC[C@@H](O)[C@@H](O)[C@H](O)[C@H](O)CO", "note": "[mannitol, D-mannitol]", "values": [{"measurement": "cumulative levels of NO", "setting": "[3]; pH 5.8", "result": 1400, "unit": "nmol NO per mg nitrite"}, {"measurement": "difference in cumulative NO with and without mannitol", "setting": "[3]; pH 6.2", "result": "differences have disappeared"}]}
{"smiles": "OC[C@@H](O)[C@H](O)[C@@H](O)CO", "note": "[xylitol]", "values": [{"measurement": "cumulative nitric oxide evolution", "setting": "[3]; after 3000 s", "result": "about 20000 nmol per mg nitrite"}]}
